From PubChem BioAssay AID179 (DTP/NCI, 2004)
Several values for one entry are separate records, joined by “and”; a condition that tells them apart may be missing. Equal values may be shown once. Activity calls are given as the source filed them.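 Rule for the calls: active = compounds giving half or more protection of infected cells from virus-caused growth loss, again on retest; inactive = the rest.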 Where a SMILES comes first, the peptide text is derived from it. [ ]: non-standard residue; d: D form. The star is where a group is joined. Hyp = O=C(O)[CH]1C[CH](O)CN1; Cbz = O=C(OCc1ccccc1)*

System: CEM cells HIV-1 protection, formazan growth assay
Assay: NCI AIDS Antiviral Assay
Conditions: for IC50: measured here: growth of uninfected CEM cells
Outline: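 CEM (human) cells, HIV-1 infected vs uninfected, 5-point dosing, formazan growth read-out. Retest threshold 50% protection.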

Row | Structure (SMILES) | EC50 [µM] | IC50 | outcome
1 | CCCCC1=NNC(=O)C1 | > 200 | > 200 µM | 
2 | N#Cc1nc(/C=C/c2ccccc2)oc1N | > 501 | 112 µM | 
3 | Nc1cc(=O)[nH]c(N)n1 |  |  | inactive
4 | Cc1c(Cl)cccc1NC(=O)C(=O)C1C(=O)NC(=O)NC1=O | > 398 | > 398 µM | 
5 | O=C/C(=C(/Br)I)c1ccccc1 | > 200 | 1.26 µM | 
6 | COc1ccc(/C=N/NC(=O)c2ccc(OCc3nc4ccccc4[nH]3)cc2)cc1 | 178 | > 200 µM | 
7 | COC(=O)C1CC2(CCC1=O)Cc1ccccc1C2=O (configuration not stated) | > 200 | 72.4 µM | 
8 | COc1ccc2c(c1)C13CCCC(C)(C(=O)NC1)C3CC2 (configuration not stated) | > 200 | > 200 µM | 
9 | O=C1/C(=C/c2ccc(F)cc2)CCC/C1=C\c1ccc(F)cc1 | > 23.4 | > 23.4 µM | 
10 | Cc1cn(C2CC(N=[N+]=[N-])C(COC(=O)CCCCCCCCCCCCl)O2)c(=O)[nH]c1=O (configuration not stated) | 0.288 | 20 µM | 
11 | c1csc(-c2sc(-c3ccsc3)cc2Cc2ccsc2)c1 |  |  | inactive
12 | Cc1c(/C=N/NS(=O)(=O)c2ccccc2)no[n+]1[O-] | > 891 | > 200 µM | 
13 | Cc1nc2n(c1C(N)=O)CCS2 | > 200 | > 200 µM | 
14 | CC(=O)c1cc2c(cc1C(C)C)CC[C@H]1[C@](C)(C#N)CCC[C@]21C | > 200 | 174 µM and 126 µM | 
15 | Cc1c(NC(=O)CCCl)c(=O)oc2c(C)c3occc(=O)c3cc12 | > 145 | 1.48 µM | 
16 | COc1cccc2c1C(=O)c1c(O)c3c(c(O)c1C2=O)C[C@@](O)(C(C)=O)C[C@@H]3OC1CC(O)C(O)C(C)O1 (some centres not stated) | > 0.2 | 0.0107 µM | 
17 | O=C1OCc2nc3c(c(-c4ccccc4C(F)(F)F)c21)C(=O)OC3 |  |  | inactive
18 | COc1ccc(/C=C/C(=O)c2sc(Nc3ccc([N+](=O)[O-])cc3)nc2C)cc1 | > 47.9 | 39.8 µM | 
19 | O=C1CSC(c2ccccc2)N1c1ccc(-n2c(-c3ccccc3)nc3ccccc3c2=O)cc1 (configuration not stated) | > 200 | 35.5 µM | 
20 | CC(C)CNC(=O)Cn1c(-c2ccccc2)cc2ccccc21 | > 200 | 195 µM | 
21 | CC(C)CCC[C@@H](C)C1CCC2C3CCC4C[C@@H](CCC=C(c5cc(F)c(O)c(C(=O)O)c5)c5cc(F)c(O)c(C(=O)O)c5)CC[C@]4(C)C3CC[C@@]21C (some centres not stated) | 21.9 | > 200 µM | 
22 | O=[N+]([O-])c1cc(S(=O)(=O)c2ccc(N(CCO)CCO)c([N+](=O)[O-])c2)ccc1N(CCO)CCO | > 200 | 35.5 µM | 

Row | Structure (SMILES) | EC50 [µM] | IC50 | outcome
23 | CC(C)(C)[Si](C)(C)OCC1CCC(n2cnc3c(NC(=O)c4ccccc4)ncnc32)O1 (configuration not stated) |  |  | inactive
24 | NC(=O)CNC(=O)C1CC(O)CN1C(=O)C1CCCN1C(=O)OCc1ccccc1 (stereo not drawn) (Cbz-Pro-[Hyp]-Gly-NH2; configuration not given here) | > 200 | > 200 µM | 
25 | CSC1=C(C#N)C(=O)N(c2ccc(Cl)cc2)C(=O)C1C#N (configuration not stated) | > 200 | 135 µM | 
26 | O=C(OCCOC(=O)c1ccc2c(c1)C1(SCCS1)c1ccccc1-2)c1ccc2c(c1)C1(SCCS1)c1ccccc1-2 | > 30.2 | > 30.2 µM | 
27 | O=C1[C@@H](c2ccc(Cl)cc2)[C@H]2CC=C[C@H]2N1O | > 355 | 61.7 µM | 
28 | Cn1c(=Nc2ccc(Cl)cc2)sc2ccccc21 | > 200 | 32.4 µM | 
29 | Clc1ccccc1C(n1ncc2ccccc21)n1ncc2ccccc21 |  |  | inactive
30 | O=C1C2C3C=C4c5ccccc5N(c5ccccc5)C4(C2C(=O)N1c1ccc(Cl)cc1)[C@H]1C(=O)N(c2ccc(Cl)cc2)C(=O)[C@@H]31 (some centres not stated) | > 3.16 | > 3.16 µM | 
31 | CCOC(=O)c1c(NC(=S)Nc2ccccc2)sc2c1CCN(C)C2 | > 200 | > 200 µM | 
32 | COc1cc(NS(=O)(=O)c2ccc(C)cc2)c2nccnc2c1 | > 204 | 77.6 µM | 
33 | CCCOC(=O)Nc1ccc2nc(N(C)C)sc2c1 | > 245 | 66.1 µM | 
34 | CC1(c2ccccc2)N=C(C(N)=O)c2[nH]cnc2N1 (configuration not stated) | > 200 | > 200 µM | 
35 | CCCCN(CCCC)C(=O)C(=O)C(C(=O)c1ccc(OC)cc1)c1ccc(OC)cc1 (configuration not stated) | > 11.7 | > 11.7 µM | 
36 | CC(C)OC(=O)c1ccc(NCc2cc(O)ccc2O)cc1Cl | > 200 | 3.63 µM | 
37 | CC(=O)C1CCC2[C@@H]3CCC4c5nn(-c6ccccc6)nc5CC[C@]4(C)C3CC[C@]12C (some centres not stated) |  |  | inactive
38 | O=C1C[C@H](Sc2ccccc2)C2(OCCO2)[C@@H](Sc2ccccc2)C1 | > 2 | 1.05 µM | 
39 | CC[C@@H]1C[C@@H](O)[C@@H]2[C@H](O)[C@H](O)CN2C1 | > 200 | > 200 µM | 
40 | O=Cc1cc(C(=O)Nc2ccc(/C=C/c3ccc(NC(=O)c4cc(C=O)c5cccnc5c4O)cc3S(=O)(=O)O)c(S(=O)(=O)O)c2)c(O)c2ncccc12 | 24.5 | > 100 µM | 
41 | CCOC(=O)/C=C\SCCC(=O)O | > 1230 | > 1230 µM | 
42 | CC(=O)c1ccc2c(ccc(=O)n2C)c1 | > 468 | 107 µM | 
43 | CCCCCCCCCCCC(=O)OC[C@H](C[As](=O)(O)O)OC(=O)CCCCCCCCCCC | > 200 | 4.17 µM | 
44 | Nc1cc(Cl)ccc1N1C(=O)C=CC1=O |  |  | inactive

Row | Structure (SMILES) | EC50 [µM] | IC50 | outcome
45 | CC1=C(C)CC2(CCCCC2=O)S(=O)C1 (configuration not stated) | > 1100 | 851 µM | 
46 | O=c1c2cc(Cl)ccc2sc2cccc(Cl)c12 | > 1.35 | > 1.35 µM | 
47 | COc1ccc(C=C(C(=O)O)C(=O)O)cc1 | > 1120 | > 1120 µM | 
48 | CC(Cc1ccccc1)NC(=O)CCNNC(=O)c1ccncc1 (configuration not stated) | > 200 | > 200 µM | 
49 | O=C(O)[C@@H](NS(=O)(=O)c1ccc(F)cc1)c1ccccc1 |  |  | inactive
50 | CC(C)c1cc(=O)[nH]c2cc(N)ccc12 | > 200 | > 200 µM | 
51 | COc1ccc2c(-c3ccc(OCCN(C)C)cc3)c(Oc3ccc(Cl)cc3)c(=O)oc2c1 | > 200 | 5.89 µM | 
52 | NCCNC(=O)CCC(CN(CC(=O)O)CC(=O)O)N(CC(=O)O)CC(=O)O (configuration not stated) | > 63.1 | > 63.1 µM | 
53 | Cc1ccc(S(=O)(=O)N2CCCSCCSCCCN(S(=O)(=O)c3ccc(C)cc3)CC2)cc1 | > 13.2 | > 13.2 µM | 
54 | CCN1CCC(O)(c2ccc(Oc3ccccc3)cc2)C(C(=O)c2ccc(Oc3ccccc3)cc2)C1 (configuration not stated) | > 200 | 13.2 µM | 
55 | COC(=O)CC1(O)C(/C=C/c2ccccc2)C(C(=O)OC)C(=O)C(C(=O)OC)C1C(=O)OC (configuration not stated) | > 50.1 | 37.2 µM | 
56 | c1ccc(CSC2(SCc3ccccc3)CCCC2)cc1 |  |  | inactive
57 | Cc1c(Cl)ccc2[s+]snc12 |  |  | inactive
58 | Cc1ccc(-n2c(=S)[nH]c3ccc(C)cc3c2=O)cc1 | > 25.7 | > 25.7 µM | 
59 | COc1cc2nncc(SCc3ccccc3Cl)c2cc1OC | 1.45 | 51.3 µM | 
60 | O=c1[nH]nc(-c2ccccc2)n1/N=C/c1ccncc1 | > 200 | 52.5 µM | 
61 | O=C(NC(O)C(Cl)(Cl)Cl)NC(O)C(Cl)(Cl)Cl (configuration not stated) | > 200 | > 200 µM | 
62 | CCn1ccnc1.CCn1ccnc1.O=C([O-])CC(O)C(=O)[O-].[Pt+2] (configuration not stated) | > 200 | > 200 µM | 
63 | CC(C)CCCC(C)[C@H]1CCC(C2C[C@@H](O)[C@@H]3CC(O)[C@@H](O)C[C@]3(CO)C2=O)[C@]1(C)CCO (some centres not stated) | > 200 | 34.7 µM | 
64 | Cc1cnc(/N=c2\sc(C)cn2-c2ncc(C)s2)s1 | > 200 | > 200 µM | 
65 | CCN1CCC(O)(c2ccc(Oc3ccc(C)cc3)cc2)C(C(=O)c2ccc(Oc3ccc(C)cc3)cc2)C1 (configuration not stated) | > 200 | 3.8 µM | 
66 | COC(=O)C1=CC2C(=O)c3ccccc3C1(c1ccccc1)N2C1CCCCC1 (configuration not stated) | > 200 | 21.4 µM | 

Row | Structure (SMILES) | EC50 [µM] | IC50 | outcome
67 | NC(=S)N/N=c1\cc(C(=O)Nc2ccc([N+](=O)[O-])cc2[N+](=O)[O-])oc2ccccc12 | > 60.3 | > 60.3 µM | 
68 | c1cnc2c(c1)-n1cccc1C1(CCCCC1)NN2 | > 200 | > 200 µM | 
69 | Cc1ccc(S(=O)(=O)N/N=C(\c2nc3ccc([N+](=O)[O-])cc3[nH]c2=O)C(O)c2ccc([N+](=O)[O-])cc2)cc1 (configuration not stated) | > 126 | 112 µM | 
70 | CO/C(=N\N=C\c1ccc(Cl)c(Cl)c1)c1ccncc1 | > 23.4 | > 23.4 µM | 
71 | N=C(c1ccccc1)N(O)C1CCCCC1 |  |  | inactive
72 | NC(=O)N/N=C(\Cc1nc2ccc(Cl)cc2[nH]c1=O)C(=O)Nc1ccc(Cl)cc1Cl | > 77.6 | > 77.6 µM | 
73 | COC(=O)C(C(=O)C(=O)Nc1ccccc1C#N)c1nc2ccc([N+](=O)[O-])cc2[nH]c1=O (configuration not stated) | > 16.6 | > 16.6 µM | 
74 | O=S(=O)(Oc1cccc2ccccc12)C(F)(F)F | > 200 | 120 µM | 
75 | CC(C)c1cccc2sc(NC(=O)C(=O)C(C#N)c3cccc4ccccc34)nc12 (configuration not stated) |  |  | inactive
76 | C1=CC2C=CC(C=C1)[PH+]2c1ccccc1.C1=CC2C=CC(C=C1)[PH+]2c1ccccc1.[C-]#[O+].[C-]#[O+].[C-]#[O+].[Fe] (configuration not stated) | > 17.8 | > 17.8 µM | 
77 | CS(=O)(=O)OCC(CCl)(CCl)CCl | > 933 | 661 µM | 
78 | CCCNC(=O)N(C(C)(C)C)S(=O)(=O)c1ccc(Cl)cc1 |  |  | inactive
79 | CCOC(=O)CCC(NC(=O)c1ccc(Oc2nc3ccccc3nc2C(=O)OCC)cc1)C(=O)OCC (configuration not stated) | > 200 | > 200 µM | 
80 | CC(C)(C)c1cc(S(=O)(=O)O)c2oc(-c3ccccc3)cc(=O)c2c1 | > 200 | > 200 µM | 
81 | COc1ccc(-c2cc(-c3ccncc3)nc(N)c2-c2ccc(F)cc2)cc1 | > 174 | > 174 µM | 
82 | N#CC(C#N)=Cc1c(O)ccc2ccccc12 | > 200 | 9.77 µM | 
83 | CCOC(=O)CCC(NC(=O)c1ccc(Nc2nc3ccccc3nc2C(=O)OCC)s1)C(=O)OCC (configuration not stated) | > 200 | > 200 µM | 
84 | CN(Cc1cnc2nc(N)nc(N)c2n1)c1ccc(C(=O)NC(CCC(=O)NCC(P(=O)(O)O)P(=O)(O)O)C(=O)O)cc1 (configuration not stated) | > 200 | 1.23 µM | 
85 | CCC(C)(C)OC(=O)CC[C@@H](C)[C@H]1CC[C@H]2[C@@H]3CCC4CC(O)CC[C@]4(C)[C@H]3CC[C@]12C (some centres not stated) | > 200 | 27.5 µM | 
